Laboratory results from patent US9050353B2, “Use of icariin and epimedium flavonoids containing icariin to treat diseases associated with myelin sheath lesion” (Xuanwu Hospital of Capital Medical University, priority 2010, dated 2015).

Legend:
Format in all cases: in vivo
[1] = test system: myeloid tissue myelinoclasis in EAE mice model; assay: Myelinoclasis of myeloid tissue, LFB staining, EAE mice; conditions: positive control drug, dose not given, scale 0-4
Procedure: (§1) Preparation of mice model and administration: experimental autoimmune encephalomyelitis (EAE) mice model is an important tool for studying various human demyelinating diseases of nervous system. In the present experiment, the preparation of EAE mice model was performed by immunizing female C57BL/6J mice with myelin sheath oligodendroglial cell surface glycoprotein MOG35-55. That is, the mice were subcutaneously injected at dorsal part of spinal column with 0.2 mL of MOG35-55 antigen elixir, and 0.2 ml of bordetella pertussis solution was intraperitoneally injected at the time of immunization injection and 48 h thereafter, respectively. Icariin was intragastrically administered after the last injection of bordetella pertussis solution, for consecutive 3 weeks.
Experimental objective: the myelinoclasis of myeloid tissue of EAE model mice were assayed by Luxol Fast Blue (LFB) staining, and the intervention effects of icariin on this pathological change were studied.
Experimental method: the mice were anesthetized with 10% chloral hydrate on the 29th day of experiment, fixed by perfusion of 4% paraformaldehyde, myeloid tissues were taken for making paraffin sections, section thickness […]. Stained with LFB, observed under microscope, and scored according to the following standard: 0 score, absence of myelinoclasis; 1 score, one small range of myelinoclasis; 2 score, 2 or 3 small ranges of myelinoclasis; 3 score, 1 to 2 large ranges of myelinoclasis; 4 score, large ranges of myelinoclasis accumulatively existing in 20% or more of white matter regions.

[2] = test system: peripheral blood CD4+ and CD8+ T cells; assay: Peripheral blood T cell subgroup by flow cytometer, EAE mice; conditions: positive control drug, dose not given
Procedure: as §1
Experimental objective: one common feature of autoimmune diseases is the […]. In this experiment, the numbers of CD4+ and CD8+ cells in peripheral blood T cell subgroup of EAE mice mode were measured by flow cytometer (FACS), and the ratio of them was obtained; and the effects of icariin on these changes were observed.
Experimental method: mice were anesthetized with pentobarbital sodium, blood sample was taken from abdominal aorta, stood at room temperature for 2 h, centrifuged at 3000 rpm for 20 min, and cells were taken, added with anti-CD4+, CD8+ T cell antibodies with different markers, then the percentages of CD4+, CD8+ cells in T lymphocytes were measured by flow cytometer, and the CD4+/CD8+ T cells ratio was calculated.

[3] = test system: IL-1β; assay: IL-1β of spinal cord lumbar intumescentia by immunohistochemical method, EAE rats; conditions: positive control drug, dose not given
Procedure: (§2) Preparation of rat model and administration: experimental autoimmune encephalomyelitis (EAE) model is an important tool for studying various human demyelinating diseases of nervous system. In the example, the preparation of EAE rat model was performed by multipoint immunizing female Lewis rats subcutaneously at tail root with a homogenate of spinal cord and cerebral gray matter of Guinea pig as well as complete Freund's adjuvant after emulsification. They were intragastrically administered with Epimedium flavanoids for 3 weeks.
Experimental objective: interleukin 1β (IL-1β) is an important inflammatory cytokines, and has promoting effects on inflammatory reactions. This experiment used immunohistochemical method to measure the content of IL-1β in spinal cord lumbar intumescentia of EAE model group rat, and observed the effects of Epimedium flavanoids on the content.
Experimental method: rats were anesthetized with 10% chloral hydrate, fixed by perfusion of 4% paraformaldehyde, spinal cord tissue was taken for making frozen section. Incubated with IL-1β primary antibody, added with corresponding secondary antibody, third antibody, DAB developed, observed under microscope. Pictures were analyzed by Image Pro plus 5.0 software.

[4] = test system: TNF-α; assay: TNF-α content of cerebral cortex by ELISA, EAE rats; conditions: positive control drug, dose not given
Procedure: as §2
Experimental objective: tumor necrosis factor α (TNF-α) is an important inflammatory cytokines, and has promoting effects on inflammatory reactions. This experiment used enzyme linked immunosorbent assay (ELISA) to measure TNF-α content of cerebral cortex in EAE rat model, and observe the effects of Epimedium flavanoids on the content.
Experimental method: rats were anesthetized and sacrificed, fresh brain tissues were was taken, processed to form cerebral cortex homogenate. The operation was performed strictly according to the steps of specification of ELISA kit. Optical density was measured with ELISA at 450 nm. The corresponding TNF-α content was calculated with the measured OD values on standard curve.

[5] = test system: CNPase; assay: Cerebral cortex CNPase content by Western blot, EAE rats; conditions: positive control drug, dose not given
Procedure: as §2
Experimental objective: myelin sheath is formed with prominences of oligodendroglial cells. […] In this experiment, CNPase content of cerebral cortex in EAE rat model was measured by Western blot method, CNPase content of spinal cord lumbar intumescentia was measured by immunohistochemical method; and the effects of Epimedium flavanoids on these contents were observed.
Experimental method: rats were anesthetized and sacrificed, cerebral cortex was taken, total protein was extracted by ice cleavage for making Western blot sample, added with CNPase primary antibody and incubated, added with corresponding secondary antibody, ECL colorated, Kodak film exposed. Pictures were analyzed by Image J software and standardized with β-actin (as internal reference).

**Q.** Which results are given for `CC(=O)OCC(=O)[C@@]1(O)CC[C@H]2[C@@H]3CCC4=CC(=O)C=C[C@]4(C)[C@H]3C(=O)C[C@@]21C` [prednisone acetate]?
**A.** Myelinoclasis (LFB staining score) [1]: 0.77 ± 0.22; CD4 + T cells [2]: 30.45 ± 8.77%; CD4 +/CD8 + ratio [2]: 0.52 ± 0.23; CD8 + T cells [2]: 60.62 ± 5.58%; IL-1β Accumulative optical density [3]: 115.5 ± 8.6 ×10^3; IL-1β Positive cell number [3]: 672 ± 48; TNF-α content [4]: 64.29 ± 7.52 pg/mg pro; CNPase/actin Integration grey level [5]: 1.33 ± 0.06
